Experimental data: patent US20260315434A1, “USE OF GUAIACOL SESQUITERPENE LACTONE DERIVATIVES” (NANJING UNIVERSITY OF CHINESE MEDICINE, priority 2023, published 2026)
One block for each molecule: values may come before it.

Legend:
T cells / MDSCs = assay: Promotion of T cell proliferation in a co-culture model of MDSCs and T cells; type: cell-based, mouse; conditions: Mus musculus, T-cell, 12 h, read-out: T-cell proliferation rate (%), 1 μM, MDSCs treated 12 hours, co-culture of MDSCs and T cells, compared to the control group
Experimental: Under sterile conditions, the tibia was removed, both ends of the bone were cut, and bone marrow was repeatedly flushed into a 15 mL centrifuge tube using a 1 mL syringe filled with culture medium. Centrifuge at 1600 rpm for 5 min to collect bone marrow cells. […] The spleen cell suspension was then transferred into a 15 mL centrifuge tube. Centrifuge at 1600 rpm for 5 min to collect T cells. Wash twice with 1×PBS. Resuspend the centrifuged T cells in 1 mL PBS and add 1 mL of 10 μM CFDA-SE solution. Incubate at room temperature for 8 min. […] After drug administration, collect MDSC cells into centrifuge tubes. Centrifuge at 1600 rpm for 5 min, remove supernatant, resuspend in 1 mL fresh medium, and plate. Add 1 mL stimulated activated T cells (1:1 ratio) for 48 h co-culture. After incubation, collect cells into centrifuge tubes, wash twice with PBS, and incubate with Fc antibody at room temperature in the dark for 10 min. Add CD3-labeled flow cytometry antibody and incubate at 4° C. in the dark for 30 min. After incubation, wash cells with PBS, resuspend in 300 μL PBS, and analyze by flow cytometry.

[1] = Conversion (release) of prodrug salts to parent compound in mouse plasma; type: in vitro ADME; conditions: 37 °C; for metabolised at 1 h / metabolised at 2 h / metabolised at 4 h / metabolised at 8 h / metabolised at 12 h: mouse, plasma, read-out: Release rate (conversion to Compound 1)
Experimental: (§1) Pharmaceutically acceptable salts of guaiane-type sesquiterpene lactone derivatives were selected and evaluated for their conversion rates to Compound 1 and Compound 83 in plasma and HEPES buffer, with results shown in Tables 2-1, 2-2, 3-1, and 3-2.
Plasma Preparation: Collect mouse plasma into an EP tube pre-loaded with sodium heparin, centrifuge at 8000 rpm for 10 minutes at 4° C., and then collect the supernatant.
(§2) Sample Analysis: Dissolve 0.6 mg of the compound in 250 μL of deionized water separately. Add 250 μL of mouse serum or HEPES 7.4 solution to the sample, incubate at a constant temperature of 37° C., and collect samples at different time points. Pipette 20 μL of the sample to an EP tube, add 60 μL of methanol, vortex to mix thoroughly, and centrifuge at 12,000 rpm at 4° C. for 10 min. At 1 h, 2 h, 4 h, 8 h, and 12 h respectively, collect the supernatant for HPLC analysis. Inject 10 μL of sample and record the corresponding peak areas. Chromatographic conditions: Hanbang C18 column (4.6×250 mm, 5 μm); mobile phase: acetonitrile: […] ammonium formate solution=60:40; flow rate 1.0 mL/min; detection wavelength 210 nm; column temperature 30° C.

[2] = Conversion (release) of prodrug salts to parent compound in HEPES buffer pH 7.4; type: in vitro ADME; conditions: for Release rate (conversion to Compound 1): HEPES pH 7.4, 37 °C
Experimental: as §1
Experimental Method: Preparation of HEPES 7.4 Solution: Dissolve 1.6 g NaCl, 0.074 g KCl, 0.027 g Na2HPO4, 0.2 g glucose, and 1 g 4-(2-Hydroxyethyl)piperazine-1-ethanesulfonic acid (HEPES) solution in 90 mL distilled water. Adjust the pH to 7.4 using 0.5 M NaOH, then dilute to a final volume 100 mL with distilled water.
as §2

[3] = hepes buffer, pH 7.4, HEPES pH 7.4, 37 °C, 2 h, read-out: Release rate (conversion to Compound 1)
[4] = hepes buffer, pH 7.4, HEPES pH 7.4, 37 °C, 4 h, read-out: Release rate (conversion to Compound 1)
[5] = hepes buffer, pH 7.4, HEPES pH 7.4, 37 °C, 8 h, read-out: Release rate (conversion to Compound 1)
[6] = hepes buffer, pH 7.4, HEPES pH 7.4, 37 °C, 12 h, read-out: Release rate (conversion to Compound 1)

Compound: C=C1C(=O)O[C@H]2[C@H]1CCC(C)=C1CC[C@@](C)(OC(=O)N3CCOCC3)[C@@H]12 [Compound 87]
activation at 1 µM (T cells / MDSCs): > 40%

metabolised at 1 h ([1]; 1 h): 7.8%
metabolised at 2 h ([1]; 2 h): 17.1%
metabolised at 4 h ([1]; 4 h): 29.3%
metabolised at 8 h ([1]; 8 h): 48.5%
metabolised at 12 h ([1]; 12 h): 65.6%
degraded at 1 h ([2]; hepes buffer, pH 7.4, HEPES pH 7.4, 37 °C, 1 h, read-out: Release rate (conversion to Compound 1)): 6.8%
degraded at 2 h [2, 3]: 16.1%
degraded at 4 h [2, 4]: 27.3%
degraded at 8 h [2, 5]: 43.5%
degraded at 12 h [2, 6]: 55.6%
Compound: C[C@@]12CC[C@@H]3[C@H](OC(=O)[C@H]3CN3CCNCC3)[C@@H]3[C@]1(CC[C@@]3(C)O)C2 [Compound 26]

Compound: C=C1C(=O)O[C@H]2[C@H]1CCC(C)=C1CC[C@@](C)(OC(=O)NCC(F)F)[C@@H]12 [Compound 89]
activation at 1 µM (T cells / MDSCs): 20 to 40%

Compound: CN(C)C[C@@H]1C(=O)O[C@H]2[C@H]1CC[C@@]1(C)C[C@]13CC[C@@](C)(O)[C@H]23 [Compound 42]
Release rate (conversion to Compound 1) ([1]; 1 h, 60 min): 6.3%
Release rate (conversion to Compound 1) ([1]; 2 h, 120 min): 14.2%
Release rate (conversion to Compound 1) ([1]; 4 h, 240 min): 26.2%
Release rate (conversion to Compound 1) ([1]; 8 h, 480 min): 41.0%
Release rate (conversion to Compound 1) ([1]; 12 h, 720 min): 47.2%
Release rate (conversion to Compound 1) ([2]; 1 h, 60 min): 7.0%
Release rate (conversion to Compound 1) ([2]; 2 h, 120 min): 15.0%
Release rate (conversion to Compound 1) ([2]; 4 h, 240 min): 25.2%
Release rate (conversion to Compound 1) ([2]; 8 h, 480 min): 42.8%
Release rate (conversion to Compound 1) ([2]; 12 h, 720 min): 52.3%

Compound: C=C1C(=O)O[C@H]2[C@H]1CCC(C)=C1CC[C@@](C)(OC(=O)NC(C)C)[C@@H]12 [Compound 68]
activation at 1 µM (T cells / MDSCs): 0 to 20%

Compound: CN(C)C[C@@H]1C(=O)O[C@H]2[C@H]1CC[C@@]1(C)C[C@]13CC[C@@](C)(O)[C@H]23 [Compound 40]
Release rate (conversion to Compound 1) ([1]; 1 h, 60 min): 6.7%
Release rate (conversion to Compound 1) ([1]; 2 h, 120 min): 14.2%
Release rate (conversion to Compound 1) ([1]; 4 h, 240 min): 26.8%
Release rate (conversion to Compound 1) ([1]; 8 h, 480 min): 44.0%
Release rate (conversion to Compound 1) ([1]; 12 h, 720 min): 52.6%
Release rate (conversion to Compound 1) ([2]; 1 h, 60 min): 6.8%
Release rate (conversion to Compound 1) ([2]; 2 h, 120 min): 14.6%
Release rate (conversion to Compound 1) ([2]; 4 h, 240 min): 26.2%
Release rate (conversion to Compound 1) ([2]; 8 h, 480 min): 44.0%
Release rate (conversion to Compound 1) ([2]; 12 h, 720 min): 50.2%

Compound: C=C1C(=O)O[C@H]2[C@H]1CCC(C)=C1CC[C@@](C)(OC(=O)NCCOCCO)[C@@H]12 [Compound 76]
activation at 1 µM (T cells / MDSCs): 20 to 40%

Compound: C=C1C(=O)O[C@H]2[C@H]1CCC(C)=C1CC[C@@](C)(OC(=O)NCCN3CCN(C)CC3)[C@@H]12 [Compound 95]
activation at 1 µM (T cells / MDSCs): 20 to 40%

Compound: CN(C)C[C@@H]1C(=O)O[C@H]2[C@H]1CC[C@@]1(C)C[C@]13CC[C@@](C)(O)[C@H]23 [Compound 39]
metabolised at 1 h ([1]; 1 h): 6.6%
metabolised at 2 h ([1]; 2 h): 14%
metabolised at 4 h ([1]; 4 h): 26.2%
metabolised at 8 h ([1]; 8 h): 43.6%
metabolised at 12 h ([1]; 12 h): 52.8%
Release rate (conversion to Compound 1) ([2]; 1 h, 60 min): 6.6%
degraded at 2 h [2, 3]: 15%
degraded at 4 h [2, 4]: 26.8%
degraded at 8 h [2, 5]: 42.7%
degraded at 12 h [2, 6]: 54.3%

Compound: CN(C)C[C@@H]1C(=O)O[C@H]2[C@H]1CC[C@@]1(C)C[C@]13CC[C@@](C)(O)[C@H]23 [Compound 41]
Release rate (conversion to Compound 1) ([1]; 1 h, 60 min): 7.8%
Release rate (conversion to Compound 1) ([1]; 2 h, 120 min): 17.2%
Release rate (conversion to Compound 1) ([1]; 4 h, 240 min): 28.0%
Release rate (conversion to Compound 1) ([1]; 8 h, 480 min): 46.1%
Release rate (conversion to Compound 1) ([1]; 12 h, 720 min): 54.8%
Release rate (conversion to Compound 1) ([2]; 1 h, 60 min): 7.0%
Release rate (conversion to Compound 1) ([2]; 2 h, 120 min): 16.2%
Release rate (conversion to Compound 1) ([2]; 4 h, 240 min): 27.3%
Release rate (conversion to Compound 1) ([2]; 8 h, 480 min): 43.4%
Release rate (conversion to Compound 1) ([2]; 12 h, 720 min): 53.2%

Compound: C=C1C(=O)O[C@H]2[C@H]1CCC(C)=C1CC[C@@](C)(OC(=O)NCCCOC)[C@@H]12 [Compound 75]
activation at 1 µM (T cells / MDSCs): 20 to 40%

Compound: CC1=C2CC[C@@](C)(OC(=O)N3CCCCC3)[C@@H]2[C@H]2OC(=O)[C@@H](CN(C)C)[C@@H]2CC1 [Compound 97]
activation at 1 µM (T cells / MDSCs): 0 to 20%

Compound: CC1=C2[C@H]3OC(=O)[C@@H](CN(C)C)[C@@H]3CC[C@@]3(C)C[C@@]23CC1 [Compound 62]
activation at 1 µM (T cells / MDSCs): 0 to 20%

Compound: CC(C)(C)OC(=O)N1CCN(C[C@@H]2C(=O)O[C@H]3[C@H]2CC[C@@]2(C)C[C@]24CC[C@@](C)(O)[C@H]34)CC1 [Compound 44]
activation at 1 µM (T cells / MDSCs): 0 to 20%
